Measurements from patent publication US20140112957A1, “Analegisic (Sebacoyl dinalbuphine ester) PLGA controlled release formulation form” (OLIVER YAO-PU HU, priority 2012, published 2014).

Key:
[1] = oil-in-water coefficient (logP) of nalbuphine and pro-soft drugs; format: physicochemical
[2] = drug saturated solubility in water; format: physicochemical
[3] = PLGA microspheres, subcutaneous injection, 50 mg/rabbit; cited from earlier work

| Compound | logP [1] | Aqueous solubility [2] | time the effective serum concentration lasted [3] |
| --- | --- | --- | --- |
| CCCCCCC(=O)Oc1ccc2c3c1O[C@H]1[C@@H](O)CC[C@@]4(O)[C@@H](C2)N(CC2CCC2)CC[C@]314 [Nalbuphine enanthate] | 1.94 | 3.00 µg/mL | – |
| CCC(=O)Oc1ccc2c3c1O[C@H]1[C@@H](O)CC[C@@]4(O)[C@@H](C2)N(CC2CCC2)CC[C@]314 [Nalbuphine propionate] | 1.05 | 44.67 µg/mL | 4 days |
| O=C(CCCCCCCCC(=O)Oc1ccc2c3c1O[C@H]1[C@@H](O)CC[C@@]4(O)[C@@H](C2)N(CC2CCC2)CC[C@]314)Oc1ccc2c3c1O[C@H]1[C@@H](O)CC[C@@]4(O)[C@@H](C2)N(CC2CCC2)CC[C@]314 [Sebacoyl dinalbuphine ester] | 3.15 | <0.25 µg/mL | – |
| CC(C)(C)C(=O)Oc1ccc2c3c1O[C@H]1[C@@H](O)CC[C@@]4(O)[C@@H](C2)N(CC2CCC2)CC[C@]314 [Nalbuphine pivalate] | 1.42 | 33.67 µg/mL | 4 days |
| CCCCCCCCCC(=O)Oc1ccc2c3c1O[C@H]1[C@@H](O)CC[C@@]4(O)[C@@H](C2)N(CC2CCC2)CC[C@]314 [Nalbuphine decanoate] | 3.30 | 0.67 µg/mL | 4 days |
